The target of the assay is T1, mutant G12C K-RAS (Homo sapiens, UniProt P01116, G12C).
T1 construct: made in house; host or cells: E. coli BL21
As to the kind of experiment: covalent adduct formation (CAF) with mutant G12C K-RAS. The class given is binding. Conditions: after 60 minutes at 10 micromolar; for CAF: Table 3, Pyridone Core-Morpholine Unsubstituted. Also noted: CAF: unit not given here. The procedure:
Embodiments disclosed herein are further illustrated by the following examples in Tables 1-4 and the Examples hereinbelow. The Tables indicate the compound number, structure, the observed mass spectral molecular weight peak, and covalent adduct formation (CAF) with a mutant G12C K-RAS after 60 minutes at a concentration of 10 micromolar.

The mark [1] stands for this setting: Table 1, Pyrimidone Core-Morpholine Unsubstituted.
Setting [2] is: Table 2, Pyrimidone Core-Morpholine Substituted.

On to `C=CC(=O)N1C[C@H](C)N(c2nc(=O)n3c4c(c(-c5ccc(F)cc5F)c(Cl)cc24)OCC3)C[C@H]1C` [Example 11, 7-((2S,5R)-4-acryloyl-2,5-dimethylpiperazin-1-yl)-9-chloro-10-(2,4-difluorophenyl)-2H-[1,4]oxazino[2,3,4-ij]quinazolin-5(3H)-one], for which the “% CAF (60 min)” value under setting [1] turned out to be 68%.

Turning to `C=CC(=O)N1C[C@H](C)N(c2nc(=O)n3c4c(c(-c5ccc(F)c(Cl)c5)ccc24)OCC3)C[C@H]1C` [Example 12, 7-((2S,5R)-4-acryloyl-2,5-dimethylpiperazin-1-yl)-10-(3-chloro-4-fluorophenyl)-2H-[1,4]oxazino[2,3,4-ij]quinazolin-5(3H)-one], under setting [1], the “% CAF (60 min)” value is 0%.

For the molecule `C=CC(=O)N1C[C@H](C)N(c2nc(=O)n3c4c(c(-c5cccc6ccccc56)ccc24)OCC3)C[C@H]1C` [Example 13, 7-((2S,5R)-4-acryloyl-2,5-dimethylpiperazin-1-yl)-10-(naphthalen-1-yl)-2H-[1,4]oxazino[2,3,4-ij]quinazolin-5(3H)-one], under setting [1], the “% CAF (60 min)” value came out at 3%.

As for `C#CC(=O)N1C[C@H](C)N(c2nc(=O)n3c4c(c(-c5ccc(F)cc5F)c(Cl)cc24)OCC3)C[C@H]1C` [Example 14], the “% CAF (60 min)” value under setting [1] is listed as 46%.

Consider `C=CC(=O)N1C[C@H](C)N(c2nc(=O)n3c4c(c(-c5cccc6cccc(Cl)c56)ccc24)OCC3)C[C@H]1C` [Example 15, 7-((2S,5R)-4-acryloyl-2,5-dimethylpiperazin-1-yl)-10-(8-chloronaphthalen-1-yl)-2H-[1,4]oxazino[2,3,4-ij]quinazolin-5(3H)-one], for which, under setting [1], the “% CAF (60 min)” value is given as 0%.

As to `C=CC(=O)N1C[C@H](C)N(c2nc(=O)n3c4c(c(-c5cc(F)cc(Cl)c5)ccc24)OCC3)C[C@H]1C` [Example 16, 7-((2S,5R)-4-acryloyl-2,5-dimethylpiperazin-1-yl)-10-(3-chloro-5-fluorophenyl)-2H-[1,4]oxazino[2,3,4-ij]quinazolin-5(3H)-one], the “% CAF (60 min)” value under setting [1] is listed as 0%.

For `C=CC(=O)N1C[C@H](C)N(c2nc(=O)n3c4c(c(-c5ccc(Cl)cc5F)ccc24)OCC3)C[C@H]1C` [Example 17, 7-((2S,5R)-4-acryloyl-2,5-dimethylpiperazin-1-yl)-10-(4-chloro-2-fluorophenyl)-2H-[1,4]oxazino[2,3,4-ij]quinazolin-5(3H)-one], the “% CAF (60 min)” value under setting [1] is listed as 2%.

Turning to `C=CC(=O)N1CCN(c2nc(=O)n3c4c(c(-c5c(O)cccc5F)c(Cl)cc24)OC[C@H]3CO)CC1` [Example 20, (3R,10R)-7-(4-acryloylpiperazin-1-yl)-9-chloro-10-(2-fluoro-6-hydroxyphenyl)-3-(hydroxymethyl)-2H-[1,4]oxazino[2,3,4-ij]quinazolin-5(3H)-one], the “% CAF (60 min)” value under setting [2] is reported as 0%.

Consider `C=CC(=O)N1CCN(c2nc(=O)n3c4c(c(-c5c(O)cccc5F)c(Cl)cc24)OC[C@@H]3CO)CC1` [Example 21, (3S)-7-(4-acryloylpiperazin-1-yl)-9-chloro-10-(2-fluoro-6-hydroxyphenyl)-3-(hydroxymethyl)-2H-[1,4]oxazino[2,3,4-ij]quinazolin-5(3H)-one], for which the “% CAF (60 min)” value under setting [2] is 72.8%.

Regarding `C=CC(=O)N1CCN(c2nc(=O)n3c4c(c(-c5c(O)cccc5F)c(Cl)cc24)OC[C@H]3CO)[C@@H](C)C1` [Example 22, (3R,10S)-7-((S)-4-acryloyl-2-methylpiperazin-1-yl)-9-chloro-10-(2-fluoro-6-hydroxyphenyl)-3-(hydroxymethyl)-2H-[1,4]oxazino[2,3,4-ij]quinazolin-5(3H)-one], the “% CAF (60 min)” value under setting [2] was found to be 87.6%.

Turning to `C=CC(=O)N1CCN(c2nc(=O)n3c4c(c(-c5c(O)cccc5F)c(Cl)cc24)OC[C@H]3CO)[C@@H](C)C1` [Example 23, (3R,10R)-7-((S)-4-acryloyl-2-methylpiperazin-1-yl)-9-chloro-10-(2-fluoro-6-hydroxyphenyl)-3-(hydroxymethyl)-2H-[1,4]oxazino[2,3,4-ij]quinazolin-5(3H)-one], the “% CAF (60 min)” value under setting [2] was determined as 0%.

Turning to `C=CC(=O)N1C[C@H](C)N(c2nc(=O)n3c4c(c(-c5c(O)cccc5F)c(Cl)cc24)OC[C@@H]3CO)C[C@H]1C` [Example 26, (3S)-7-((2S,5R)-4-acryloyl-2,5-dimethylpiperazin-1-yl)-9-chloro-10-(2-fluoro-6-hydroxyphenyl)-3-(hydroxymethyl)-2H-[1,4]oxazino[2,3,4-ij]quinazolin-5(3H)-one], the “% CAF (60 min)” value under setting [2] is reported as 81.9%.

For the molecule `C=CC(=O)N1C[C@H](C)N(c2nc(=O)n3c4c(c(-c5c(O)cccc5F)c(Cl)cc24)OC[C@@H]3CO)C[C@H]1C` [Example 27, (3S,10S)-7-((2S,5R)-4-acryloyl-2,5-dimethylpiperazin-1-yl)-9-chloro-10-(2-fluoro-6-hydroxyphenyl)-3-(hydroxymethyl)-2H-[1,4]oxazino[2,3,4-ij]quinazolin-5(3H)-one], under setting [2], the “% CAF (60 min)” value came to 85.5%.

As to `C=CC(=O)N1C[C@H](C)N(c2nc(=O)n3c4c(c(-c5c(O)cccc5F)c(Cl)cc24)OC[C@@H]3CO)C[C@H]1C` [Example 28, (3S,10R)-7-((2S,5R)-4-acryloyl-2,5-dimethylpiperazin-1-yl)-9-chloro-10-(2-fluoro-6-hydroxyphenyl)-3-(hydroxymethyl)-2H-[1,4]oxazino[2,3,4-ij]quinazolin-5(3H)-one], the “% CAF (60 min)” value under setting [2] amounted to 1.3%.

`C=CC(=O)N1C[C@H](C)N(c2nc(=O)n3c4c(c(-c5c(O)cccc5F)c(Cl)cc24)OC[C@H]3CO)C[C@H]1C` [Example 30]: the “% CAF (60 min)” value under setting [2] is 68.1%.

Consider `C=CC(=O)N1C[C@H](C)N(c2nc(=O)n3c4c(c(-c5c(O)cccc5F)c(Cl)cc24)OC[C@H]3CO)C[C@H]1C` [Example 32, (3R,10R)-7-((2S,5R)-4-acryloyl-2,5-dimethylpiperazin-1-yl)-9-chloro-10-(2-fluoro-6-hydroxyphenyl)-3-(hydroxymethyl)-2H-[1,4]oxazino[2,3,4-ij]quinazolin-5(3H)-one], for which, under setting [2], the “% CAF (60 min)” value stood at 0%.

Consider `C=CC(=O)N1C[C@H](C)N(c2nc(=O)n3c4c(c(-c5c(O)cccc5F)c(Cl)cc24)OC[C@H]3CO)C[C@H]1C` [Example 33, (3R,10S)-7-((2S,5R)-4-acryloyl-2,5-dimethylpiperazin-1-yl)-9-chloro-1-(2-fluoro-6-hydroxyphenyl)-3-(hydroxymethyl)-2H-[1,4]oxazino[2,3,4-ij]quinazolin-5(3H)-one], for which the “% CAF (60 min)” value under setting [2] stood at 87.3%.

Take `C=CC(=O)N1C[C@H](C)N(c2nc(=O)n3c4c(c(-c5ccc(F)cc5)c(Cl)cc24)OCC3CN(C)C)C[C@H]1C` (stereo partly drawn) [Example 34, 7-((2S,5R)-4-acryloyl-2,5-dimethylpiperazin-1-yl)-9-chloro-3-((dimethylamino)methyl)-10-(4-fluorophenyl)-2H-[1,4]oxazino[2,3,4-ij]quinazolin-5(3H)-one]: the “% CAF (60 min)” value under setting [2] is on record as 77.4%.

For the molecule `C=CC(=O)N1C[C@H](C)N(c2nc(=O)n3c4c(c(-c5ccc(F)cc5F)c(Cl)cc24)OCC3CN(C)C)C[C@H]1C` (stereo partly drawn) [Example 35, 7-((2S,5R)-4-acryloyl-2,5-dimethylpiperazin-1-yl)-9-chloro-10-(2,4-difluorophenyl)-3-((dimethylamino)methyl)-2H-[1,4]oxazino[2,3,4-ij]quinazolin-5(3H)-one], the “% CAF (60 min)” value under setting [2] was 84.6%.

The molecule `C=CC(=O)N1CCN(c2c(C#N)c(=O)n3c4c(c(-c5c(O)cccc5F)c(Cl)cc24)OCC3)[C@@H](C)C1` [Example 38, 7-((S)-4-acryloyl-2-methylpiperazin-1-yl)-9-chloro-10-(2-fluoro-6-hydroxyphenyl)-5-oxo-3,5-dihydro-2H-[1,4]oxazino[2,3,4-ij]quinoline-6-carbonitrile] displayed a CAF of 49.1.

As for `C=CC(=O)N1CCN(c2c(C#N)c(=O)n3c4c(c(-c5c(O)cccc5F)c(Cl)cc24)OCC3)[C@@H](C)C1` [Example 39, (S)-7-((S)-4-acryloyl-2-methylpiperazin-1-yl)-9-chloro-10-(2-fluoro-6-hydroxyphenyl)-5-oxo-3,5-dihydro-2H-[1,4]oxazino[2,3,4-ij]quinoline-6-carbonitrile], the CAF is 0.

Molecule `C=CC(=O)N1CCN(c2c(C#N)c(=O)n3c4c(c(-c5c(O)cccc5F)c(Cl)cc24)OCC3)[C@@H](C)C1` [Example 40, (R)-7-((S)-4-acryloyl-2-methylpiperazin-1-yl)-9-chloro-10-(2-fluoro-6-hydroxyphenyl)-5-oxo-3,5-dihydro-2H-[1,4]oxazino[2,3,4-ij]quinoline-6-carbonitrile] returned a CAF of 75.5.

`C=CC(=O)N1C[C@H](C)N(c2c(C#N)c(=O)n3c4c(c(-c5c(O)cccc5F)c(Cl)cc24)OCC3)C[C@H]1C` [Example 41, 7-((2S,5R)-4-acryloyl-2,5-dimethylpiperazin-1-yl)-9-chloro-10-(2-fluoro-6-hydroxyphenyl)-5-oxo-3,5-dihydro-2H-[1,4]oxazino[2,3,4-ij]quinoline-6-carbonitrile] registered a CAF of 22.3.

With `C=CC(=O)N1C[C@H](C)N(c2c(C#N)c(=O)n3c4c(c(-c5c(O)cccc5F)c(Cl)cc24)OCC3)C[C@H]1C` [Example 42, (S)-7-((2S,5R)-4-acryloyl-2,5-dimethylpiperazin-1-yl)-9-chloro-10-(2-fluoro-6-hydroxyphenyl)-5-oxo-3,5-dihydro-2H-[1,4]oxazino[2,3,4-ij]quinoline-6-carbonitrile], the CAF was 0.

`C=CC(=O)N1C[C@H](C)N(c2c(C#N)c(=O)n3c4c(c(-c5c(O)cccc5F)c(Cl)cc24)OCC3)C[C@H]1C` [Example 43, (R)-7-((2S,5R)-4-acryloyl-2,5-dimethylpiperazin-1-yl)-9-chloro-10-(2-fluoro-6-hydroxyphenyl)-5-oxo-3,5-dihydro-2H-[1,4]oxazino[2,3,4-ij]quinoline-6-carbonitrile]: the CAF is listed as 0.
